Assay results published in ChEMBL document CHEMBL5608163, “Structure modification of anoplin for fighting resistant bacteria” (Eur J Med Chem, 2024).
Values after ≈ are worked out from the molar mass of the structure shown. Bridge positions count the residues as written; N and C are the ends. Peptide text beside a SMILES is read from it. I, II: the chains in the order shown. * marks the point of attachment. Lauroyl = CCCCCCCCCCCC(=O)*; Octanoyl = CCCCCCCC(=O)*; Hexanoyl = CCCCCC(=O)*; Butyryl = CCCC(=O)*

Experiments:
Erythrocyte = assay: Hemolytic activity in human erythrocyte incubated for 70 mins by absorbance based assay; type: toxicity, cell-based; conditions: 1.167 h
Bacillus subtilis = assay: Antibacterial activity against Bacillus subtilis ATCC 23857 assessed as reduction in bacterial cell growth incubated for 16 to 24 hrs by CLSI-protocol based Mueller-Hinton Broth micro-dilution method; type: functional; conditions: time 16-24 hrs
Pseudomonas aeruginosa = assay: Antibacterial activity against Pseudomonas aeruginosa ATCC 27853 assessed as reduction in bacterial cell growth incubated for 16 to 24 hrs by CLSI-protocol based Mueller-Hinton Broth micro-dilution method; type: functional; conditions: time 16-24 hrs
Escherichia coli = assay: Antibacterial activity against Escherichia coli ATCC 25922 assessed as reduction in bacterial cell growth incubated for 16 to 24 hrs by CLSI-protocol based Mueller-Hinton Broth micro-dilution method; type: functional; conditions: time 16-24 hrs
Klebsiella pneumoniae = assay: Antibacterial activity against Klebsiella pneumoniae ATCC 700603 assessed as reduction in bacterial cell growth incubated for 16 to 24 hrs by CLSI-protocol based Mueller-Hinton Broth micro-dilution method; type: functional; conditions: time 16-24 hrs
Staphylococcus aureus = assay: Antibacterial activity against Staphylococcus aureus ATCC 25923 assessed as reduction in bacterial cell growth incubated for 16 to 24 hrs by CLSI-protocol based Mueller-Hinton Broth micro-dilution method; type: functional; conditions: time 16-24 hrs

Structure (SMILES) | HC10 (Erythrocyte) | MIC (Bacillus subtilis) | MIC (Pseudomonas aeruginosa) | MIC (Escherichia coli) | MIC (Klebsiella pneumoniae) | MIC (Staphylococcus aureus)
CCCCCC(=O)NCC(=O)N[C@@H](CC(C)C)C(=O)N[C@@H](CC(C)C)C(=O)N[C@@H](CCCCN)C(=O)N[C@@H](CCCNC(=N)N)C(=O)N[C@H](C(=O)N[C@@H](CCCCN)C(=O)N[C@H](C(=O)N[C@@H](CC(C)C)C(=O)N[C@@H](CC(C)C)C(=O)NCCCC[C@H](NC(=O)[C@H](CCCCNC(=O)[C@H](CC(C)C)NC(=O)[C@H](CC(C)C)NC(=O)[C@@H](NC(=O)[C@H](CCCCN)NC(=O)[C@@H](NC(=O)[C@H](CCCNC(=N)N)NC(=O)[C@H](CCCCN)NC(=O)[C@H](CC(C)C)NC(=O)[C@H](CC(C)C)NC(=O)CNC(=O)CCCCC)[C@@H](C)CC)[C@@H](C)O)NC(=O)[C@H](CC(C)C)NC(=O)[C@H](CC(C)C)NC(=O)[C@@H](NC(=O)[C@H](CCCCN)NC(=O)[C@@H](NC(=O)[C@H](CCCNC(=N)N)NC(=O)[C@H](CCCCN)NC(=O)[C@H](CC(C)C)NC(=O)[C@H](CC(C)C)NC(=O)CNC(=O)CCCCC)[C@@H](C)CC)[C@@H](C)O)C(N)=O)[C@@H](C)O)[C@@H](C)CC (I: Hexanoyl-GLLKRIKTLLKK-NH2 / II: Hexanoyl-GLLKRIKTLL / III: Hexanoyl-GLLKRIKTLL; amide I:11-III:C, I:12-II:C) [listing 1 of 2 here] | 0.71 µM | – | – | – | – | –
CCCC(=O)NCC(=O)N[C@@H](CC(C)C)C(=O)N[C@@H](CC(C)C)C(=O)N[C@@H](CCCCN)C(=O)N[C@@H](CCCNC(=N)N)C(=O)N[C@H](C(=O)N[C@@H](CCCCN)C(=O)N[C@H](C(=O)N[C@@H](CC(C)C)C(=O)N[C@@H](CC(C)C)C(=O)NCCCC[C@H](NC(=O)[C@H](CCCCNC(=O)[C@H](CC(C)C)NC(=O)[C@H](CC(C)C)NC(=O)[C@@H](NC(=O)[C@H](CCCCN)NC(=O)[C@@H](NC(=O)[C@H](CCCNC(=N)N)NC(=O)[C@H](CCCCN)NC(=O)[C@H](CC(C)C)NC(=O)[C@H](CC(C)C)NC(=O)CNC(=O)CCC)[C@@H](C)CC)[C@@H](C)O)NC(=O)[C@H](CC(C)C)NC(=O)[C@H](CC(C)C)NC(=O)[C@@H](NC(=O)[C@H](CCCCN)NC(=O)[C@@H](NC(=O)[C@H](CCCNC(=N)N)NC(=O)[C@H](CCCCN)NC(=O)[C@H](CC(C)C)NC(=O)[C@H](CC(C)C)NC(=O)CNC(=O)CCC)[C@@H](C)CC)[C@@H](C)O)C(N)=O)[C@@H](C)O)[C@@H](C)CC (I: Butyryl-GLLKRIKTLLKK-NH2 / II: Butyryl-GLLKRIKTLL / III: Butyryl-GLLKRIKTLL; amide I:11-III:C, I:12-II:C) | 3.18 µM | – | – | – | – | –
CCCCCCCC(=O)NCC(=O)N[C@@H](CC(C)C)C(=O)N[C@@H](CC(C)C)C(=O)N[C@@H](CCCCN)C(=O)N[C@@H](CCCNC(=N)N)C(=O)N[C@H](C(=O)N[C@@H](CCCCN)C(=O)N[C@H](C(=O)N[C@@H](CC(C)C)C(=O)N[C@@H](CC(C)C)C(=O)NCCCC[C@H](NC(=O)[C@H](CCCCNC(=O)[C@H](CC(C)C)NC(=O)[C@H](CC(C)C)NC(=O)[C@@H](NC(=O)[C@H](CCCCN)NC(=O)[C@@H](NC(=O)[C@H](CCCNC(=N)N)NC(=O)[C@H](CCCCN)NC(=O)[C@H](CC(C)C)NC(=O)[C@H](CC(C)C)NC(=O)CNC(=O)CCCCCCC)[C@@H](C)CC)[C@@H](C)O)NC(=O)[C@H](CC(C)C)NC(=O)[C@H](CC(C)C)NC(=O)[C@@H](NC(=O)[C@H](CCCCN)NC(=O)[C@@H](NC(=O)[C@H](CCCNC(=N)N)NC(=O)[C@H](CCCCN)NC(=O)[C@H](CC(C)C)NC(=O)[C@H](CC(C)C)NC(=O)CNC(=O)CCCCCCC)[C@@H](C)CC)[C@@H](C)O)C(N)=O)[C@@H](C)O)[C@@H](C)CC (I: Octanoyl-GLLKRIKTLLKK-NH2 / II: Octanoyl-GLLKRIKTLL / III: Octanoyl-GLLKRIKTLL; amide I:11-III:C, I:12-II:C) [listing 1 of 2 here] | 59.73 µM | – | – | – | – | –
CCCCCC(=O)NCC(=O)N[C@@H](CC(C)C)C(=O)N[C@@H](CC(C)C)C(=O)N[C@@H](CCCCN)C(=O)N[C@@H](CCCNC(=N)N)C(=O)N[C@H](C(=O)N[C@@H](CCCCN)C(=O)N[C@H](C(=O)N[C@@H](CC(C)C)C(=O)N[C@@H](CC(C)C)C(=O)NCCCC[C@H](NC(=O)[C@H](CCCCNC(=O)[C@H](CC(C)C)NC(=O)[C@H](CC(C)C)NC(=O)[C@@H](NC(=O)[C@H](CCCCN)NC(=O)[C@@H](NC(=O)[C@H](CCCNC(=N)N)NC(=O)[C@H](CCCCN)NC(=O)[C@H](CC(C)C)NC(=O)[C@H](CC(C)C)NC(=O)CNC(=O)CCCCC)[C@@H](C)CC)[C@@H](C)O)NC(=O)[C@H](CC(C)C)NC(=O)[C@H](CC(C)C)NC(=O)[C@@H](NC(=O)[C@H](CCCCN)NC(=O)[C@@H](NC(=O)[C@H](CCCNC(=N)N)NC(=O)[C@H](CCCCN)NC(=O)[C@H](CC(C)C)NC(=O)[C@H](CC(C)C)NC(=O)CNC(=O)CCCCC)[C@@H](C)CC)[C@@H](C)O)C(N)=O)[C@@H](C)O)[C@@H](C)CC (I: Hexanoyl-GLLKRIKTLLKK-NH2 / II: Hexanoyl-GLLKRIKTLL / III: Hexanoyl-GLLKRIKTLL; amide I:11-III:C, I:12-II:C) [listing 2 of 2 here] | – | 8 µM (≈ 31.8 µg/mL) | 8 µM (≈ 31.8 µg/mL) | 16 µM (≈ 63.6 µg/mL) | 32 µM (≈ 127 µg/mL) | 16 µM (≈ 63.6 µg/mL)
CCCCCCCCCCCC(=O)NCC(=O)N[C@@H](CC(C)C)C(=O)N[C@@H](CC(C)C)C(=O)N[C@@H](CCCCN)C(=O)N[C@@H](CCCNC(=N)N)C(=O)N[C@H](C(=O)N[C@@H](CCCCN)C(=O)N[C@H](C(=O)N[C@@H](CC(C)C)C(=O)N[C@@H](CC(C)C)C(=O)NCCCC[C@H](NC(=O)[C@H](CCCCNC(=O)[C@H](CC(C)C)NC(=O)[C@H](CC(C)C)NC(=O)[C@@H](NC(=O)[C@H](CCCCN)NC(=O)[C@@H](NC(=O)[C@H](CCCNC(=N)N)NC(=O)[C@H](CCCCN)NC(=O)[C@H](CC(C)C)NC(=O)[C@H](CC(C)C)NC(=O)CNC(=O)CCCCCCCCCCC)[C@@H](C)CC)[C@@H](C)O)NC(=O)[C@H](CC(C)C)NC(=O)[C@H](CC(C)C)NC(=O)[C@@H](NC(=O)[C@H](CCCCN)NC(=O)[C@@H](NC(=O)[C@H](CCCNC(=N)N)NC(=O)[C@H](CCCCN)NC(=O)[C@H](CC(C)C)NC(=O)[C@H](CC(C)C)NC(=O)CNC(=O)CCCCCCCCCCC)[C@@H](C)CC)[C@@H](C)O)C(N)=O)[C@@H](C)O)[C@@H](C)CC (I: Lauroyl-GLLKRIKTLLKK-NH2 / II: Lauroyl-GLLKRIKTLL / III: Lauroyl-GLLKRIKTLL; amide I:11-III:C, I:12-II:C) [listing 1 of 2 here] | – | 256 µM (≈ 1080 µg/mL) | 64 µM (≈ 271 µg/mL) | 64 µM (≈ 271 µg/mL) | 64 µM (≈ 271 µg/mL) | 64 µM (≈ 271 µg/mL)
CCCCCCCCCCCC(=O)NCC(=O)N[C@@H](CC(C)C)C(=O)N[C@@H](CC(C)C)C(=O)N[C@@H](CCCCN)C(=O)N[C@@H](CCCNC(=N)N)C(=O)N[C@H](C(=O)N[C@@H](CCCCN)C(=O)N[C@H](C(=O)N[C@@H](CC(C)C)C(=O)N[C@@H](CC(C)C)C(=O)NCCCC[C@H](NC(=O)[C@H](CCCCNC(=O)[C@H](CC(C)C)NC(=O)[C@H](CC(C)C)NC(=O)[C@@H](NC(=O)[C@H](CCCCN)NC(=O)[C@@H](NC(=O)[C@H](CCCNC(=N)N)NC(=O)[C@H](CCCCN)NC(=O)[C@H](CC(C)C)NC(=O)[C@H](CC(C)C)NC(=O)CNC(=O)CCCCCCCCCCC)[C@@H](C)CC)[C@@H](C)O)NC(=O)[C@H](CC(C)C)NC(=O)[C@H](CC(C)C)NC(=O)[C@@H](NC(=O)[C@H](CCCCN)NC(=O)[C@@H](NC(=O)[C@H](CCCNC(=N)N)NC(=O)[C@H](CCCCN)NC(=O)[C@H](CC(C)C)NC(=O)[C@H](CC(C)C)NC(=O)CNC(=O)CCCCCCCCCCC)[C@@H](C)CC)[C@@H](C)O)C(N)=O)[C@@H](C)O)[C@@H](C)CC (I: Lauroyl-GLLKRIKTLLKK-NH2 / II: Lauroyl-GLLKRIKTLL / III: Lauroyl-GLLKRIKTLL; amide I:11-III:C, I:12-II:C) [listing 2 of 2 here] | 103.52 µM | – | – | – | – | –
CC[C@H](C)[C@H](NC(=O)[C@H](CCCNC(=N)N)NC(=O)[C@H](CCCCN)NC(=O)[C@H](CC(C)C)NC(=O)[C@H](CC(C)C)NC(=O)CN)C(=O)N[C@@H](CCCCN)C(=O)N[C@H](C(=O)N[C@@H](CC(C)C)C(=O)N[C@@H](CC(C)C)C(=O)NCCCC[C@H](NC(=O)[C@H](CCCCNC(=O)[C@H](CC(C)C)NC(=O)[C@H](CC(C)C)NC(=O)[C@@H](NC(=O)[C@H](CCCCN)NC(=O)[C@@H](NC(=O)[C@H](CCCNC(=N)N)NC(=O)[C@H](CCCCN)NC(=O)[C@H](CC(C)C)NC(=O)[C@H](CC(C)C)NC(=O)CN)[C@@H](C)CC)[C@@H](C)O)NC(=O)[C@H](CC(C)C)NC(=O)[C@H](CC(C)C)NC(=O)[C@@H](NC(=O)[C@H](CCCCN)NC(=O)[C@@H](NC(=O)[C@H](CCCNC(=N)N)NC(=O)[C@H](CCCCN)NC(=O)[C@H](CC(C)C)NC(=O)[C@H](CC(C)C)NC(=O)CN)[C@@H](C)CC)[C@@H](C)O)C(N)=O)[C@@H](C)O (I: H-GLLKRIKTLLKK-NH2 / II: H-GLLKRIKTLL / III: H-GLLKRIKTLL; amide I:11-III:C, I:12-II:C) | 2.53 µM | – | – | – | – | –
CCCCCCCC(=O)NCC(=O)N[C@@H](CC(C)C)C(=O)N[C@@H](CC(C)C)C(=O)N[C@@H](CCCCN)C(=O)N[C@@H](CCCNC(=N)N)C(=O)N[C@H](C(=O)N[C@@H](CCCCN)C(=O)N[C@H](C(=O)N[C@@H](CC(C)C)C(=O)N[C@@H](CC(C)C)C(=O)NCCCC[C@H](NC(=O)[C@H](CCCCNC(=O)[C@H](CC(C)C)NC(=O)[C@H](CC(C)C)NC(=O)[C@@H](NC(=O)[C@H](CCCCN)NC(=O)[C@@H](NC(=O)[C@H](CCCNC(=N)N)NC(=O)[C@H](CCCCN)NC(=O)[C@H](CC(C)C)NC(=O)[C@H](CC(C)C)NC(=O)CNC(=O)CCCCCCC)[C@@H](C)CC)[C@@H](C)O)NC(=O)[C@H](CC(C)C)NC(=O)[C@H](CC(C)C)NC(=O)[C@@H](NC(=O)[C@H](CCCCN)NC(=O)[C@@H](NC(=O)[C@H](CCCNC(=N)N)NC(=O)[C@H](CCCCN)NC(=O)[C@H](CC(C)C)NC(=O)[C@H](CC(C)C)NC(=O)CNC(=O)CCCCCCC)[C@@H](C)CC)[C@@H](C)O)C(N)=O)[C@@H](C)O)[C@@H](C)CC (I: Octanoyl-GLLKRIKTLLKK-NH2 / II: Octanoyl-GLLKRIKTLL / III: Octanoyl-GLLKRIKTLL; amide I:11-III:C, I:12-II:C) [listing 2 of 2 here] | – | 32 µM (≈ 130 µg/mL) | 32 µM (≈ 130 µg/mL) | 32 µM (≈ 130 µg/mL) | 128 µM (≈ 520 µg/mL) | 32 µM (≈ 130 µg/mL)
